Laboratory results as given in patent publication US20030087906A1, “NITROGEN SUBSTITUTED BIARYL PURINE DERIVATIVES AS POTENT ANTIPROLIFERATIVE AGENTS” (priority 2001, published 2003).

Experiments:
Assay in all cases: NCI 60-cell line growth inhibition assay
Type in all cases: cell-based
BT-549 = conditions: Homo sapiens; BT-549 (Breast)
MDA-MB-231/ATCC = conditions: Homo sapiens; MDA-MB-231/ATCC (Breast)
NCI/ADR-RES = conditions: Homo sapiens; NCI/ADR-RES (Breast)
SF-295 = conditions: Homo sapiens; SF-295 (CNS)
SNB-19 = conditions: Homo sapiens; SNB-19 (CNS)
SNB-75 = conditions: Homo sapiens; SNB-75 (CNS)
COLO 205 = conditions: Homo sapiens; COLO 205 (Colon)
HCC-2998 = conditions: Homo sapiens; HCC-2998 (Colon)
HCT-116 = conditions: Homo sapiens; HCT-116 (Colon)
HCT-15 = conditions: Homo sapiens; HCT-15 (Colon)
HT29 = conditions: Homo sapiens, HT-29; HT29 (Colon)
KM12 = conditions: Homo sapiens; KM12 (Colon)
K-562 = conditions: Homo sapiens, K562; K-562 (Leukemia)
MOLT-4 = conditions: Homo sapiens; MOLT-4 (Leukemia)
M14 = conditions: Homo sapiens; M14 (Melanoma)
SK-MEL-28 = conditions: Homo sapiens; SK-MEL-28 (Melanoma)
SK-MEL-5 = conditions: Homo sapiens; SK-MEL-5 (Melanoma)
UACC-257 = conditions: Homo sapiens; UACC-257 (Melanoma)
NCI-H23 = conditions: Homo sapiens; NCI-H23 (Non-Small Cell Lung)
NCI-H322M = conditions: Homo sapiens; NCI-H322M (Non-Small Cell Lung)
NCI-H460 = conditions: Homo sapiens; NCI-H460 (Non-Small Cell Lung)
NCI-H522 = conditions: Homo sapiens; NCI-H522 (Non-Small Cell Lung)
IGROV1 = conditions: Homo sapiens, IGROV-1; IGROV1 (Ovarian)
OVCAR-3 = conditions: Homo sapiens; OVCAR-3 (Ovarian)
OVCAR-4 = conditions: Homo sapiens; OVCAR-4 (Ovarian)
OVCAR-5 = conditions: Homo sapiens; OVCAR-5 (Ovarian)
SK-OV-3 = conditions: Homo sapiens; SK-OV-3 (Ovarian)
PC-3 = conditions: Homo sapiens; PC-3 (Prostate)
786-0 = conditions: Homo sapiens; 786-0 (Renal)
A498 = conditions: Homo sapiens; A498 (Renal)
RXF 393 = conditions: Homo sapiens; RXF 393 (Renal)
SN12C = conditions: Homo sapiens; SN12C (Renal)
TK-10 = conditions: Homo sapiens; TK-10 (Renal)
UO-31 = conditions: Homo sapiens; UO-31 (Renal)
HS 578T = conditions: Homo sapiens; HS 578T (Breast)
MDA-MB-435 = conditions: Homo sapiens; MDA-MB-435 (Breast)
SF-539 = conditions: Homo sapiens; SF-539 (CNS)
CCRF-CEM = conditions: Homo sapiens; CCRF-CEM (Leukemia)
SR = conditions: Homo sapiens; SR (Leukemia)
LOX IMVI = conditions: Homo sapiens; LOX IMVI (Melanoma)
HOP-92 = conditions: Homo sapiens; HOP-92 (Non-Small Cell Lung)

SMILES | GI50 (BT-549) [µM] | GI50 (MDA-MB-231/ATCC) [µM] | GI50 (NCI/ADR-RES) [µM] | GI50 (SF-295) [µM] | GI50 (SNB-19) [µM] | GI50 (SNB-75) [µM] | GI50 (COLO 205) [µM] | GI50 (HCC-2998) [µM] | GI50 (HCT-116) [µM] | GI50 (HCT-15) [µM] | GI50 (HT29) [µM] | GI50 (KM12) [µM] | GI50 (K-562) [µM] | GI50 (MOLT-4) [µM] | GI50 (M14) [µM] | GI50 (SK-MEL-28) [µM] | GI50 (UACC-257) [µM] | GI50 (NCI-H23) [µM] | GI50 (NCI-H322M) [µM] | GI50 (NCI-H522) [µM] | other results
CC(C)n1cnc2c(NCc3ccc(-c4ccccn4)cc3)nc(N[C@H]3CC[C@H](N)CC3)nc21 [Compound 78] | 0.04 | < 0.01 | 14.5 | 0.21 | < 0.01 | < 0.01 | < 0.01 | < 0.01 | 0.03 | 1.48 | < 0.01 | < 0.01 | 0.02 | < 0.01 | < 0.01 | 0.01 | 0.02 | 0.01 | < 0.01 | < 0.01 | GI50 (SK-MEL-5): 0.1 µM; GI50 (NCI-H460): 0.05 µM; GI50 (IGROV1): < 0.01 µM; GI50 (OVCAR-3): 0.03 µM; GI50 (OVCAR-4): 0.02 µM; GI50 (OVCAR-5): < 0.01 µM; GI50 (SK-OV-3): 0.06 µM; GI50 (PC-3): < 0.01 µM; GI50 (786-0): 0.04 µM; GI50 (A498): 0.03 µM; GI50 (RXF 393): < 0.01 µM; GI50 (SN12C): < 0.01 µM; GI50 (TK-10): 0.07 µM; GI50 (UO-31): 0.17 µM
CC(C)n1cnc2c(NCc3ccc(-c4ccsc4)cc3)nc(N[C@H]3CC[C@H](N)CC3)nc21 [Compound 12] | 0.041 | < 0.005 | 1.26 | 0.018 | 0.016 | < 0.005 | < 0.005 | < 0.005 | 0.0089 | 0.17 | < 0.005 | < 0.005 | < 0.005 | < 0.005 | < 0.005 | 0.01 | 0.008 | < 0.005 | < 0.005 | < 0.005 | GI50 (HS 578T): < 0.005 µM; GI50 (MDA-MB-435): < 0.005 µM; GI50 (SF-539): 0.022 µM; GI50 (CCRF-CEM): < 0.005 µM; GI50 (SR): < 0.005 µM; GI50 (LOX IMVI): < 0.005 µM; GI50 (HOP-92): 0.011 µM; GI50 (IGROV1): 0.013 µM; GI50 (OVCAR-3): 0.012 µM; GI50 (OVCAR-4): < 0.005 µM; GI50 (OVCAR-5): 0.017 µM; GI50 (PC-3): < 0.005 µM; GI50 (786-0): 0.0065 µM; GI50 (A498): 0.016 µM; GI50 (RXF 393): < 0.005 µM; GI50 (SN12C): < 0.005 µM; GI50 (TK-10): 0.01 µM; GI50 (UO-31): 0.063 µM
